Reference: patent publication US6759384B1, “Factor Xa inhibitors” (Aventis Pharmaceuticals Inc., priority 1994, dated 2004)
Counter-ions that a name gives are not always drawn. Like-named read-outs stand apart in the source and are kept apart here. Starred links: 1 amine or outer side, 2 acyl side, 3 side chain; linkers in the order of their positions; H or OH if unused. Non-standard residues stand in square brackets, D forms with d. Residues, ends and D or L forms follow the SMILES beside them. No end group written: not given here. *: point of attachment. X1 = CC(C)CN([C@@H](Cc1ccc(O)cc1)C(=O)[*:2])[*:1]; 2Nal = N[C@@H](Cc1ccc2ccccc2c1)C(=O)O; Chg = N[C@H](C(=O)O)C1CCCCC1; Tfa = O=C(C(F)(F)F)*

What was measured:
[1] = Ex vivo dilute prothrombin time assay after iv administration to rabbits; conditions: rabbit, in vivo, time at which approximately 50% of the initial anticoagulant activity remains in plasma, read-out: T1/2 Rabbit ex vivo
Description: (§1) The compounds of the invention were assessed for their ability to inhibit factor Xa activity. Effectiveness of various compounds was assessed by the in vitro prothrombin time (PT) assay using pooled human donor plasma. An ex vivo assay also was used in which plasma was collected at various times after intravenous (iv) administration of a compound to rats and to rabbits or intraduodenal administration to rats and analyzed using the PT assay to determine plasma half-life. The PT assay was initiated with a thromboplastin dilution selected to obtain an extended and highly reproducible coagulation endpoint, referred to as the “dilute PT assay” as described below. Effectiveness of various compounds also was determined using an in vivo rat arteriovenous shunt model of thrombosis.
(§2) Test compound was administered iv either through the tail vein (rat) or ear vein (rabbit) following an approved protocol. One ml blood samples were removed at timed intervals after administration of a test compound from a cannulated carotid artery (rat) or auricular artery (rabbit). After centrifugation to obtain PPP, the plasma was immediately stored on ice or frozen.
(§3) For dilute prothrombin time determination, the plasma was prewarmed and assayed as described above. Percent inhibition was calculated from a thromboplastin dilution curve, which was run with each series of samples, and used to determine the time at which approximately 50% of the initial anticoagulant activity remains in the plasma (T1/2).

[2] = Ex vivo dilute prothrombin time assay after iv administration to rats; conditions: rat, in vivo, time at which approximately 50% of the initial anticoagulant activity remains in plasma, read-out: T1/2 Rat ex vivo
Description: as §1, §2, §3
Various compounds also were examined for anticoagulant activity using the ex vivo dilute prothrombin time assay following iv bolus administration of various doses in rats. […] The structures of all of the compounds listed in Table 5 were confirmed by MS and AA.

[3] = molecular target: T1, human neutrophil elastase (Homo sapiens, UniProt P08246); test: Elastase chromogenic assay; format: biochemical; conditions: Table 2
T1 construct: purchased Athens Research and Technology, Inc; Athens Ga
T1 sequence (P08246 30-247 limits assumed): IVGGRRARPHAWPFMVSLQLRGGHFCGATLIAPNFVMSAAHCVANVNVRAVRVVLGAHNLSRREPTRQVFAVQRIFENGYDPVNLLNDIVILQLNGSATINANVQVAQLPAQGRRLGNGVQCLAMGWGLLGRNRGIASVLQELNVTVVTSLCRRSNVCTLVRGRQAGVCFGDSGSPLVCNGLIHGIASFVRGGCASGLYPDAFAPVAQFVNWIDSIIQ
Description: (§4) The ability of a compound of the invention to inhibit factor Xa, thrombin, plasmin, elastase and trypsin was assessed by determining the concentration of YIR peptide that inhibits enzyme activity by 50% (IC50). Purified enzymes were used in chromogenic assays. To determine the inhibition constant, the IC50 value was corrected for competition with substrate using the formula:
(§5) Ki=IC50×(1/{1+((substrate concentration)/substrate Km)})
Tris-Cl, pH 7.4, 300 mM NaCl, 2% (v/v) N-methyl-pyrrolidone, 0.01% (w/v) NaN3 buffer was used for this assay. The IC50 was determined as described in Example XXXVII.a., except that the substrate was succinyl-Ala-Ala-Ala-p-nitroanilide (Calbiochem-Nova Biochem Corp.; San Diego Calif.) and the enzyme was human neutrophil elastase (Athens Research and Technology, Inc.; Athens Ga.). The enzyme concentration was 75 nM and the substrate concentration was 600 μM.

[4] = molecular target: T2, human plasmin (Homo sapiens, UniProt P00747); test: Plasmin chromogenic assay; format: biochemical; conditions: Table 2
T2 construct: the enzyme was human plasmin (Kabi); purchased Kabi
Description: as §4, §5
TBS-P buffer was used for this assay. The IC50 was determined as described in Example XXXVII.a., except that the substrate was S-2251 ((D)-Val-L-Leu-L-Lys-p-nitroanilide; Kabi) and the enzyme was human plasmin (Kabi). The enzyme concentration was 5 nM and the substrate concentration was 300 uM.

[5] = molecular target: factor Xa; conditions: background section; cited from earlier work
[6] = molecular target: T3, human factor Xa (Homo sapiens, UniProt P00742); test: Factor Xa chromogenic assay; format: biochemical
T3 construct: purchased Enzyme Research Laboratories, Inc; South Bend Ind
Description: as §4, §5
(Chen and Prusoff, Biochem. Pharmacol. 22:3099-[…] (1973), which is incorporated herein by reference).
TBS-P buffer (50 mM Tris-Cl, pH 7.8, 200 mM NaCl, 0.05% (w/v) PEG-8000, 0.02% (w/v) NaN3) was used for this assay. The IC50 was determined by combining in appropriate wells of a Costar half-area microtiter plate 25 μl human factor Xa (Enzyme Research Laboratories, Inc.; South Bend Ind.) in TBS-P; 40 μl 10% (v/v) DMSO in TBS-P (uninhibited control) or various concentrations of a peptide to be tested diluted in 10% (v/v) DMSO in TBS-P; and substrate S-2765 (Nα-benzyloxycarbonyl-D-Arg-Gly-L-Arg-p-nitroanilide; Kabi Pharmacia, Inc.; Franklin Ohio) in TBS-P.
The assays were performed by pre-incubating the peptide inhibitor plus enzyme for 10 min, then the assay was initiated by adding substrate to obtain a final volume of 100 μl. The initial velocity of chromogenic substrate hydrolysis was measured by the change in absorbance at 405 nm using a Bio-tek Instruments kinetic plate reader (Ceres UV900HDi) at 25° C. during the linear portion of the time course (usually 1-5 min after addition of substrate). The concentration of inhibitor that caused a 50% decrease in the rate of substrate hydrolysis was predicted by linear regression after plotting the relative rates of hydrolysis (compared to the uninhibited control) versus the log of the peptide concentration. The enzyme concentration was 0.5 nM and substrate concentration was 140 μM.

[7] = molecular target: T4, human thrombin (Homo sapiens, UniProt P00734); test: Thrombin chromogenic assay; format: biochemical; conditions: Table 2
T4 construct: purchased Enzyme Research Laboratories, Inc; South Bend Ind
Description: as §4, §5
TBS-P buffer was used for this assay. The IC50 was determined as described in Example XXXVII.a., except that the substrate was S-2366 (L-PyroGlu-L-Pro-L-Arg-p-nitroanilide; Kabi) and the enzyme was human thrombin (Enzyme Research Laboratories, Inc.; South Bend Ind.). The enzyme concentration was 1 nM and substrate concentration was 175 μM.

[8] = molecular target: T5, bovine pancreatic trypsin (Bos taurus, UniProt P00760); test: Trypsin chromogenic assay; format: biochemical; conditions: Table 2; * no significant inhibition at the highest concentration tested
T5 construct: purchased Sigma Type XIII, TPCK treated; host or cells: bovine pancreas
T5 sequence (P00760 24-246): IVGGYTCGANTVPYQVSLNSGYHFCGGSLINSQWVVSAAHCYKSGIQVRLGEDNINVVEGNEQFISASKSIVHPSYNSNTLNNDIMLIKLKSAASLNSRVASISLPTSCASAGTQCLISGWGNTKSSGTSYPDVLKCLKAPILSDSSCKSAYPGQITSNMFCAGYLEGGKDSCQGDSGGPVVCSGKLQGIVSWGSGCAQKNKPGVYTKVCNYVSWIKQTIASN
Description: as §4, §5
TBS-P buffer containing 10 mM CaCl2 was used for this assay. The IC50 determination was determined as described in Example XXXVII.a., except that the substrate was BAPNA (Benzoyl-L-Arg-p-nitroanilide; Sigma Chemical Co.; St. Louis Mo.) and the enzyme was bovine pancreatic trypsin (Type XIII, TPCK treated; Sigma). The enzyme concentration was 50 nM and the substrate concentration was 300 μM.

[9] = tested on: pooled human platelet poor plasma; test: In vitro dilute prothrombin time assay; format: biochemical; conditions: concentration giving 50% inhibition of coagulation, dilute PT
Description: The compounds of the invention were assessed for their ability to inhibit factor Xa activity. Effectiveness of various compounds was assessed by the in vitro prothrombin time (PT) assay using pooled human donor plasma. An ex vivo assay also was used in which plasma was collected at various times after intravenous (iv) administration of a compound to rats and to rabbits or intraduodenal administration to rats and analyzed using the PT assay to determine plasma half-life. The PT assay was initiated with a thromboplastin dilution selected to obtain an extended and highly reproducible coagulation endpoint, referred to as the “dilute PT assay” as described below. Effectiveness of various compounds also was determined using an in vivo rat arteriovenous shunt model of thrombosis. […]
Alternatively, the dilute prothrombin time assay was conducted using the “research” mode on an Instrumentation Laboratories (IL) ACL3000-plus automated coagulation instrument (IL; Milan, Italy). […] During the assay, a 50 μl sample (plasma separated by centrifugation) was mixed with 100 μl thromboplastin reagent and nephelometric readings were taken over 169 sec. Coagulation time was determined from the maximal rate of change of light scatter calculated by the instrument. Inhibition is expressed as percent activity as determined by comparison with the calibration curve.

T3 sequence (P00742 235-488 limits assumed): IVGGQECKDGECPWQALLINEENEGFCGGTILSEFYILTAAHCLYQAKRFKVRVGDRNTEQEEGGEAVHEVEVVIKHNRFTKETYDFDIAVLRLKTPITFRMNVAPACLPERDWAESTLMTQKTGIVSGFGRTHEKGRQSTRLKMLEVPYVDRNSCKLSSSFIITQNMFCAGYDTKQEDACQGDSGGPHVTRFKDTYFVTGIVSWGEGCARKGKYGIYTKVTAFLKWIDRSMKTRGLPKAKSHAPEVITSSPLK
T3 sequence (P00742 41-179 partner limits assumed): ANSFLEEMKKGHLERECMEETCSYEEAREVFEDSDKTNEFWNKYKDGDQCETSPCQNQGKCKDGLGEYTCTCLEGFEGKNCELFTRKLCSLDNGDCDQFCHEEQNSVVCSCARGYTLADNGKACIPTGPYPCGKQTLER
T2 sequence (P00747 581-810 limits assumed): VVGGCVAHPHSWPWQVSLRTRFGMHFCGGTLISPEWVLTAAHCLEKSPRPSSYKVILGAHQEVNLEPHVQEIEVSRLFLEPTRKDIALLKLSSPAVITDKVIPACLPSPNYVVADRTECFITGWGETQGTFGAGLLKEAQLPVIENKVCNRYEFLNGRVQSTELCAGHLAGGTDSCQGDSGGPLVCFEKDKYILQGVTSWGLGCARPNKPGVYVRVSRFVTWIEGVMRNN
T2 sequence (P00747 97-580 partner limits assumed): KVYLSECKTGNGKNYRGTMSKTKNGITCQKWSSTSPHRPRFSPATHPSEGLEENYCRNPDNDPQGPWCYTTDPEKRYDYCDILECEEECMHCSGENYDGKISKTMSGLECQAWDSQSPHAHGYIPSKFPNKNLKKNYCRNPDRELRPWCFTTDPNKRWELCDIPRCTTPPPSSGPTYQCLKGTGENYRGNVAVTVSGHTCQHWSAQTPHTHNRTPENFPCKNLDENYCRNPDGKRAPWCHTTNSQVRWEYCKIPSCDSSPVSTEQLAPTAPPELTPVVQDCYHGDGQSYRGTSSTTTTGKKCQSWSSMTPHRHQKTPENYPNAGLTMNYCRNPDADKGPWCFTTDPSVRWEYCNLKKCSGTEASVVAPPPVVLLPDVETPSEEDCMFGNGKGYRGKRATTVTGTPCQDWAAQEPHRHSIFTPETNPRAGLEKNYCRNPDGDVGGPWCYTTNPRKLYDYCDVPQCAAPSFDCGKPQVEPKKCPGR

half-life [1]	half-life [2]	Compound	Ki [5]	also measured
5 min	5 min	CC(=O)N[C@@H](Cc1ccc(O)cc1)C(=O)N[C@H](C(=O)N[C@@H](CCCNC(=N)N)C(=O)N[C@@H](CC(C)C)C(=O)N1CCC[C@H]1C(N)=O)C1CCCCC1 [Ac—Y—Chg—R—L—P—NH2, Ac-Tyr-Chg-Arg-Leu-Pro-NH2] (Ac-Y[Chg]RLP-NH2)	–	EC50 [9]: 225 nM
5 min	6 min	CC(=O)N[C@@H](Cc1ccc2ccccc2c1)C(=O)N[C@H](C(=O)N[C@@H](CCCNC(=N)N)C(=O)N[C@@H](CC(C)C)C(=O)N1CCC[C@H]1C(N)=O)C1CCCCC1 [Ac—Nal(2)—Chg—R—L—P—NH2, Ac-Nal(2)-Chg-Arg-Leu-Pro-NH2] (Ac-[2Nal][Chg]RLP-NH2)	–	EC50 [9]: 140 nM

Second part, the compound before the results:

Compound	half-life [1]	half-life [2]	Ki [5]	also measured
CC(C)C[C@H](NC(=O)[C@H](CCCNC(=N)N)NC(=O)[C@@H](NC(=O)[C@H](Cc1ccc(O)cc1)N(CC(C)C)C(=O)C(F)(F)F)C1CCCCC1)C(=O)N1CCC[C@H]1C(N)=O [Tfa—(iBu)Y—Chg—R—L—P—NH2, Tfa-(iBu)Tyr-Chg-Arg-Leu-Pro-NH2] (Tfa-[X1][Chg]RLP-NH2)	10 min	15 min	–	–
N-alpha-tosyl-Gly-p-amidinophenylalanine methyl ester [TENSTOP, reference compound]	–	–	~800 nM	Ki [3]: > 200000 nM; Ki [4]: > 200000 nM; Ki ([6]; Table 2, read-out: Ki Xa): 2000 nM; Ki [7]: 2000 nM
TAP: tick anticoagulant peptide, isolated from the tick Ornithodoros moubata, 60 amino acids (YNRLCIKPRDWIDECDSNEGGERAYFRNGKGGCDSFWICPEDHTGADYYSSYRDCFNACI; ends and bridges not checked; cysteine pairing not given here; UniProt P17726 1-60, looked up)	–	–	~0.5 nM	–
YIRLAAET [Ac-Y-I-R-L-A-A-E-T, Ac-Y-I-R-L-A-A-E-T (SEQ ID NO:9)]	–	–	–	Ki ([6]; Table 2, read-out: Ki Xa): 1500 nM; Ki [8]: > 200000 nM
CC(=O)N[C@@H](Cc1ccc(O)cc1)C(=O)N[C@H](C(=O)N[C@@H](CCCNC(=N)N)C(N)=O)C1CCCCC1 [Ac—Y—Chg—R—NH2] (Ac-Tyr-[Chg]-Arg-NH2)	5 min	5 min	–	–
N=C(N)c1ccc(C=C2CCCCC(=Cc3ccc(C(=N)N)cc3)C2=O)cc1 [2,7-bis-(4-amidinobenzylidene)-cycloheptanone, reference compound]	–	–	~20 nM	–
CC[C@H](C)[C@H](NC(=O)[C@H](Cc1ccc(O)cc1)N(CC(C)C)C(C)=O)C(=O)N[C@@H](CCCNC(=N)N)C(=O)N[C@@H](CC(C)C)C(=O)N1CCC[C@H]1C(N)=O [Ac-(iBu)Y-I-R-L-P, Ac-(iBu)Tyr-Ile-Arg-Leu-Pro-NH2] (Ac-[X1]IRLP-NH2)	–	–	–	Ki [3]: > 100000 nM; Ki [4]: > 200000 nM; Ki ([6]; Example XXXVI, read-out: Ki (inhibition of factor Xa activity)): 40 nM
